{"source": "patent US20200163984A1", "about": "“USE OF ISOVALERYL SPIRAMYCIN I, II AND/OR III IN MANUFACTURING MEDICAMENT FOR TREATING AND/OR PREVENTING TUMOR, AND MEDICAMENT” (SHENYANG FUYANG PHARMACEUTICAL TECHNOLOGY CO., LTD., priority 2017, published 2020)", "key": {"[1]": {"tested_on": "transplanted tumor of human glioma cell U251", "experiment": "U251 transplanted tumor in nude mice", "settings": "for Tumor Volume (mm3) (d 1): d1", "method": "(§1) U251 cells in a logarithmic growth phase were taken and subjected to a trypan blue exclusion experiment showing that the cell viability was more than 95%, then the cells were subjected to trypsinization, centrifugation, and supernatant removal. Then cell concentration was adjusted to 1×10^7/ml with matrigel, then each nude mouse was inoculated subcutaneously with 0.2 ml of cells at its right armpit and recorded as the first day of inoculation. When the tumor grows to be greater than or equal to 100 mm^3, the mice were randomly divided into 11 groups with 6 mice in each group: a model group, a cyclophosphamide group, isovaleryl spiramycin I groups with doses of 25, 50 and 100 mg/kg, isovaleryl spiramycin II groups with doses of 25, 50 and 100 mg/kg, and isovaleryl spiramycin III groups with doses of 25, 50 and 100 mg/kg. Each group was continuously administered intragastrically for 30 days with a dose of 20 ml/kg. The mice were sacrificed the next day after drug withdrawal and the indicators were tested. The long diameter and short diameter of the tumor, and the body weight of each mouse were recorded every 3 days from drug administration to nude mouse sacrifice.\n(§2) The body weight of the nude mice and the long diameter (a) and short diameter (b) of the transplanted tumor were measured every 3 days, and the tumor volume (v), relative tumor volume (RTV) and relative tumor proliferation rate (T/C) are calculated respectively according to the following formulas, wherein V=a×b^2/2; RTV=V/V0 (V0 is the tumor volume before administration, V is the tumor volume before sacrifice), and T/C (%)=treatment group RTV/model control group RTV×100%.\n(§3) Each mouse was weighed and sacrificed. After the tumor was completely stripped off from the body of the mouse, the non-tumor tissues such as blood stains and fat were removed to weigh the tumor and calculate the tumor growth inhibition rate. The average tumor weight of each group of mice is used as an indicator of efficacy. Tumor growth inhibition rate (%)=(1−the average tumor weight of the treatment group/the average tumor weight of the model group)×100%."}, "[2]": {"experiment": "Thymus index and spleen index of H22 liver cancer tumor-bearing mice", "method": "In the H22 liver cancer model, the mice inoculated with the tumor were randomly divided into groups with 10 mice in each group on the next day of inoculation. The groups included: a model control group, a positive drug cyclophosphamide control group (CTX, 26 mg/kg), isovaleryl spiramycin I groups with doses of 13, 26 and 52 mg/kg; isovaleryl spiramycin II groups with doses of 13, 26 and 52 mg/kg; isovaleryl spiramycin III groups with doses of 13, 26 and 52 mg/kg. Each group was continuously administered intragastrically for 7 days with a dose of 20 ml/kg."}, "[3]": {"experiment": "Thymus index and spleen index of Lewis lung cancer tumor-bearing mice", "settings": "n = 6", "method": "In the Lewis lung cancer model, the mice inoculated with the tumor were randomly divided into groups with 10 mice in each group the next day of inoculation. The groups included: a model control group, a positive drug cyclophosphamide control group (CTX, 30 mg/kg), isovaleryl spiramycin I groups with doses of 13, 26 and 52 mg/kg; isovaleryl spiramycin II groups with doses of 13, 26 and 52 mg/kg; isovaleryl spiramycin III groups with doses of 13, 26 and 52 mg/kg. Each group was continuously administered intragastrically for 15 days with a dose of 20 ml/kg."}, "[4]": {"tested_on": "transplanted tumor of human breast cancer cell MDA-MB-231", "experiment": "MDA-MB-231 transplanted tumor in nude mice", "method": "as §1, with “Then” for “U251 cells in a logarithmic growth phase were taken and subjected to a trypan blue exclusion experiment showing that the cell viability was more than 95%, then the cells were subjected to trypsinization, centrifugation, and supernatant removal. Then”\nas §2, §3"}, "[5]": {"settings": "U251, high dose (100 mg/kg in method) i.g. 30 days"}, "[6]": {"settings": "U251, low dose (25 mg/kg in method) i.g. 30 days"}, "[7]": {"settings": "U251, medium dose (50 mg/kg in method) i.g. 30 days"}, "[8]": {"settings": "MDA-MB-231, 25 mg/kg (low dose) i.g. 30 days"}, "[9]": {"settings": "MDA-MB-231, 50 mg/kg (medium dose) i.g. 30 days"}, "[10]": {"settings": "MDA-MB-231, 100 mg/kg (high dose) i.g. 30 days"}}}
{"compound": "COC1C(OC(C)=O)CC(=O)OC(C)CC=CC=CC(OC2CCC(N(C)C)C(C)O2)C(C)CC(CC=O)C1OC1OC(C)C(OC2CC(C)(O)C(OC(=O)CC(C)C)C(C)O2)C(N(C)C)C1O", "note": "(stereo not shown) [Isovaleryl spiramycin II, isovaleryl spiramycin II]", "values": [{"measurement": "Relative Tumor Proliferation Rate (T/C)", "setting": "[1]; [5]", "value": 43.26, "unit": "%"}, {"measurement": "tumor growth inhibition rate", "setting": "[1]; [5]", "value": 40.26, "unit": "%"}, {"measurement": "Relative Tumor Proliferation Rate (T/C)", "setting": "[1]; [6]", "value": 76.14, "unit": "%"}, {"measurement": "tumor growth inhibition rate", "setting": "[1]; [6]", "value": 10.91, "unit": "%"}, {"measurement": "tumor volume and relative tumor volume compared with the model group", "setting": "[1]; U251, low, medium and high doses, P<0.05", "value": "significantly lower"}, {"measurement": "Relative Tumor Proliferation Rate (T/C)", "setting": "[1]; [7]", "value": 51.88, "unit": "%"}, {"measurement": "tumor growth inhibition rate", "setting": "[1]; [7]", "value": 15.81, "unit": "%"}, {"measurement": "Inhibition Rate (%)", "setting": "[1]; U251 nude mice, 25 mg/kg", "value": 10.91, "unit": "%"}, {"measurement": "Relative Tumor Proliferation Rate (T/C)", "setting": "[1]; U251 nude mice, 25 mg/kg", "value": 76.14, "unit": "%"}, {"measurement": "Relative Tumor Volume (RTV)", "setting": "[1]; U251 nude mice, 25 mg/kg", "value": "14.73 ± 1.33"}, {"measurement": "Tumor Weight", "setting": "[1]; U251 nude mice, 25 mg/kg", "value": "1.23 ± 0.12", "unit": "g"}, {"measurement": "Tumor Volume (mm3) (d 1)", "setting": "[1]; U251 nude mice, 25 mg/kg", "value": "125.90 ± 11.45", "unit": "mm3"}, {"measurement": "Tumor Volume (mm3) (d30)", "setting": "[1]; U251 nude mice, 25 mg/kg", "value": "1596.45 ± 267.65", "unit": "mm3"}, {"measurement": "Inhibition Rate (%)", "setting": "[1]; U251 nude mice, 50 mg/kg", "value": 15.81, "unit": "%"}, {"measurement": "Relative Tumor Proliferation Rate (T/C)", "setting": "[1]; U251 nude mice, 50 mg/kg", "value": 51.88, "unit": "%"}, {"measurement": "Relative Tumor Volume (RTV)", "setting": "[1]; U251 nude mice, 50 mg/kg", "value": "14.31 ± 0.98"}, {"measurement": "Tumor Weight", "setting": "[1]; U251 nude mice, 50 mg/kg", "value": "1.16 ± 0.10", "unit": "g"}, {"measurement": "Tumor Volume (mm3) (d 1)", "setting": "[1]; U251 nude mice, 50 mg/kg", "value": "118.33 ± 11.65", "unit": "mm3"}, {"measurement": "Tumor Volume (mm3) (d30)", "setting": "[1]; U251 nude mice, 50 mg/kg", "value": "1030.10 ± 207.19", "unit": "mm3"}, {"measurement": "Inhibition Rate (%)", "setting": "[1]; U251 nude mice, 100 mg/kg", "value": 40.26, "unit": "%"}, {"measurement": "Relative Tumor Proliferation Rate (T/C)", "setting": "[1]; U251 nude mice, 100 mg/kg", "value": 43.26, "unit": "%"}, {"measurement": "Relative Tumor Volume (RTV)", "setting": "[1]; U251 nude mice, 100 mg/kg", "value": "12.88 ± 1.54"}, {"measurement": "Tumor Weight", "setting": "[1]; U251 nude mice, 100 mg/kg", "value": "0.83 ± 0.12", "unit": "g"}, {"measurement": "Tumor Volume (mm3) (d 1)", "setting": "[1]; U251 nude mice, 100 mg/kg", "value": "122.74 ± 10.75", "unit": "mm3"}, {"measurement": "Tumor Volume (mm3) (d30)", "setting": "[1]; U251 nude mice, 100 mg/kg", "value": "890.78 ± 225.34", "unit": "mm3"}, {"measurement": "mouse weight compared with the model group", "setting": "[1]; mouse, in vivo", "value": "no significant changes"}, {"measurement": "Body Weight (g) (d1)", "setting": "[1]; mouse, in vivo, 25 mg/kg", "value": "20.77 ± 0.65", "unit": "g"}, {"measurement": "Body Weight (g) (d30)", "setting": "[1]; mouse, in vivo, 25 mg/kg", "value": "20.85 ± 0.79", "unit": "g"}, {"measurement": "Body Weight (g) (d1)", "setting": "[1]; mouse, in vivo, 50 mg/kg", "value": "21.25 ± 0.46", "unit": "g"}, {"measurement": "Body Weight (g) (d30)", "setting": "[1]; mouse, in vivo, 50 mg/kg", "value": "20.86 ± 0.43", "unit": "g"}, {"measurement": "Body Weight (g) (d1)", "setting": "[1]; mouse, in vivo, 100 mg/kg", "value": "20.92 ± 0.82", "unit": "g"}, {"measurement": "Body Weight (g) (d30)", "setting": "[1]; mouse, in vivo, 100 mg/kg", "value": "21.47 ± 0.70", "unit": "g"}, {"measurement": "Spleen Index (%)", "setting": "[2]; dose 13 mg/kg", "value": "0.59 ± 0.24", "unit": "%"}, {"measurement": "Thymus Index (%)", "setting": "[2]; dose 13 mg/kg", "value": "0.12 ± 0.05", "unit": "%"}, {"measurement": "Spleen Index (%)", "setting": "[2]; dose 26 mg/kg", "value": "0.68 ± 0.24", "unit": "%"}, {"measurement": "Thymus Index (%)", "setting": "[2]; dose 26 mg/kg", "value": "0.16 ± 0.03", "unit": "%"}, {"measurement": "Spleen Index (%)", "setting": "[2]; dose 52 mg/kg", "value": "0.64 ± 0.17", "unit": "%"}, {"measurement": "Thymus Index (%)", "setting": "[2]; dose 52 mg/kg", "value": "0.17 ± 0.10", "unit": "%"}, {"measurement": "Spleen Index (%)", "setting": "[3]; dose 13 mg/kg", "value": "0.75 ± 0.24", "unit": "%"}, {"measurement": "Thymus Index (%)", "setting": "[3]; dose 13 mg/kg", "value": "0.12 ± 0.08", "unit": "%"}, {"measurement": "Spleen Index (%)", "setting": "[3]; dose 26 mg/kg", "value": "0.68 ± 0.21", "unit": "%"}, {"measurement": "Thymus Index (%)", "setting": "[3]; dose 26 mg/kg", "value": "0.14 ± 0.02", "unit": "%"}, {"measurement": "Spleen Index (%)", "setting": "[3]; dose 52 mg/kg", "value": "0.66 ± 0.17", "unit": "%"}, {"measurement": "Thymus Index (%)", "setting": "[3]; dose 52 mg/kg", "value": "0.15 ± 0.09", "unit": "%"}, {"measurement": "Inhibition Rate (tumor growth inhibition rate)", "setting": "[4]; [8]", "value": 18.17, "unit": "%"}, {"measurement": "Relative Tumor Proliferation Rate (T/C)", "setting": "[4]; [8]", "value": 80.22, "unit": "%"}, {"measurement": "Relative Tumor Volume (RTV)", "setting": "[4]; [8]", "value": "12.53 ± 1.78"}, {"measurement": "Tumor Volume (d 1)", "setting": "[4]; [8]", "value": "119.72 ± 6.52", "unit": "mm3"}, {"measurement": "Tumor Volume (d 30)", "setting": "[4]; [8]", "value": "1493.96 ± 171.49", "unit": "mm3"}, {"measurement": "Tumor Weight", "setting": "[4]; [8]", "value": "1.90 ± 0.31", "unit": "g"}, {"measurement": "Inhibition Rate (tumor growth inhibition rate)", "setting": "[4]; [9]", "value": 29.66, "unit": "%"}, {"measurement": "Relative Tumor Proliferation Rate (T/C)", "setting": "[4]; [9]", "value": 58.78, "unit": "%"}, {"measurement": "Relative Tumor Volume (RTV)", "setting": "[4]; [9]", "value": "9.18 ± 2.38"}, {"measurement": "Tumor Volume (d 1)", "setting": "[4]; [9]", "value": "119.07 ± 3.19", "unit": "mm3"}, {"measurement": "Tumor Volume (d 30)", "setting": "[4]; [9]", "value": "1094.89 ± 291.37", "unit": "mm3"}, {"measurement": "Tumor Weight", "setting": "[4]; [9]", "value": "1.63 ± 0.32", "unit": "g"}, {"measurement": "Inhibition Rate (tumor growth inhibition rate)", "setting": "[4]; [10]", "value": 58.91, "unit": "%"}, {"measurement": "Relative Tumor Proliferation Rate (T/C)", "setting": "[4]; [10]", "value": 30.89, "unit": "%"}, {"measurement": "Relative Tumor Volume (RTV)", "setting": "[4]; [10]", "value": "6.08 ± 1.74"}, {"measurement": "Tumor Volume (d 1)", "setting": "[4]; [10]", "value": "115.89 ± 9.01", "unit": "mm3"}, {"measurement": "Tumor Volume (d 30)", "setting": "[4]; [10]", "value": "700.44 ± 192.38", "unit": "mm3"}, {"measurement": "Tumor Weight", "setting": "[4]; [10]", "value": "0.95 ± 0.42", "unit": "g"}, {"measurement": "tumor volume and relative tumor volume compared with the model group", "setting": "[4]; MDA-MB-231, low, medium and high doses, P<0.05", "value": "significantly lower"}, {"measurement": "mouse weight compared with the model group", "setting": "[4]; mouse, in vivo", "value": "no significant changes"}]}
